Results published in ChEMBL document CHEMBL1201862, “PubChem BioAssay data set” (2004).
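Briefly, cells in 96-well plates were exposed to five compound concentrations for 48 h, and endpoints were estimated by linear interpolation. Abbreviation: GI50, concentration required for 50% inhibition of growth.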 The source made the active and inactive calls. Cut-off read from the data, not from the text of the source: active = GI50 up to about 1.1 µM and inactive = higher. Non-standard residues stand in square brackets, D forms with d. Residues, ends and D or L forms follow the SMILES beside them. ξ: configuration not given here. *: point of attachment. NMeF = CN[C@@H](Cc1ccccc1)C(=O)O; NMeV = CN[C@H](C(=O)O)C(C)C; ξNMeV = CNC(C(=O)O)C(C)C; Boc = CC(C)(C)OC(=O)*; OBn = c1ccc(CO*)cc1

Tests used:
Test in all cases: NCI-60 cell line screen, 48 h
[1] = system: SF-268
[2] = system: UO-31
[3] = system: OVCAR-5
[4] = system: HL-60
[5] = system: SK-MEL-2
[6] = system: NCI-H522
[7] = system: K562
[8] = system: U-251
[9] = system: ACHN
[10] = system: UACC-62
[11] = system: HCT-15
[12] = system: HOP-62
[13] = system: SK-OV-3
[14] = system: OVCAR-8
[15] = system: HCT-116
[16] = system: NCI-H460
[17] = system: HCC 2998
[18] = system: NCI/ADR-RES
[19] = system: MDA-MB-231
[20] = system: BT-549

Structure (SMILES) | GI50 [1] | GI50 [2] | GI50 [3] | GI50 [4] | GI50 [5] | GI50 [6] | GI50 [7] | GI50 [8] | GI50 [9] | GI50 [10] | GI50 [11] [µM] | GI50 [12] | GI50 [13] | GI50 [14] | GI50 [15] | GI50 [16] | GI50 [17] | GI50 [18] | GI50 [19] | GI50 [20]
CCOC(=O)C1=C(C)N(NC(=O)OC)C2(N)N(NC(=O)OC)C(C)=C(C(=O)OCC)C12C#N (centres undefined) | > 100 µM (inactive) | > 100 µM (inactive) | > 100 µM (inactive) | > 100 µM (inactive) | > 100 µM (inactive) | > 100 µM (inactive) | > 100 µM (inactive) | > 100 µM (inactive) | > 100 µM (inactive) | > 100 µM (inactive) | > 100 | > 100 µM (inactive) | > 100 µM (inactive) | > 100 µM (inactive) | > 100 µM (inactive) | > 100 µM (inactive) | > 100 µM (inactive) | – | – | –
CC(C)CCCC(=O)CCCCCCC(=O)CCN(O)C(=O)C(N)CO (centres undefined) | 26.2 µM (inactive) | 12.2 µM (inactive) | 19.8 µM (inactive) | 20 µM (inactive) | 17.1 µM (inactive) | – | 28.3 µM (inactive) | 21.8 µM (inactive) | 16.1 µM (inactive) | 16.7 µM (inactive) | 15.3 | 21.2 µM (inactive) | 19.1 µM (inactive) | 16.9 µM (inactive) | 17.7 µM (inactive) | – | – | 16.1 µM (inactive) | 16.2 µM (inactive) | 14.7 µM (inactive)
CCOC(=O)c1csc(NC(=O)CCN2CCOCC2)n1 | – | 78.5 µM (inactive) | > 100 µM (inactive) | 27.7 µM (inactive) | > 100 µM (inactive) | – | 74.8 µM (inactive) | > 100 µM (inactive) | 44.5 µM (inactive) | > 100 µM (inactive) | 49.7 | > 100 µM (inactive) | > 100 µM (inactive) | 29.8 µM (inactive) | – | > 100 µM (inactive) | > 100 µM (inactive) | 48.5 µM (inactive) | > 100 µM (inactive) | –
CC1OC(OCC2OC(Oc3c(-c4ccc(O)cc4)oc4cc(O)cc(O)c4c3=O)C(OC3OC(C)C(O)C(O)C3O)C(O)C2O)C(O)C(O)C1O (centres undefined) | > 100 µM (inactive) | > 100 µM (inactive) | > 100 µM (inactive) | > 100 µM (inactive) | > 100 µM (inactive) | > 100 µM (inactive) | > 31.6 µM (inactive) | > 100 µM (inactive) | > 67.6 µM (inactive) | > 100 µM (inactive) | > 42.3 | > 100 µM (inactive) | > 100 µM (inactive) | > 100 µM (inactive) | > 100 µM (inactive) | > 68.9 µM (inactive) | > 100 µM (inactive) | – | – | –
Cc1cn2c(/C=N/NC(=N)N)c(-c3ccc([N+](=O)[O-])cc3)nc2s1 | 1.64 µM (inactive) | 1.95 µM (inactive) | 0.785 µM (active) | 1.53 µM (inactive) | 1.36 µM (inactive) | – | – | 0.995 µM (active) | 1.49 µM (inactive) | 1.72 µM (inactive) | 1.46 | 1.29 µM (inactive) | 1.76 µM (inactive) | 0.149 µM (active) | 0.227 µM (active) | 1.76 µM (inactive) | – | 4.04 µM (inactive) | 0.385 µM (active) | –
COc1ccc(C(=O)C(C(=O)CCC(=O)Nc2cccc(C(F)(F)F)c2)c2ccccc2)cc1 (centres undefined) | > 100 µM (inactive) | 55.1 µM (inactive) | > 100 µM (inactive) | 61.2 µM (inactive) | 96.8 µM (inactive) | 32.1 µM (inactive) | 54 µM (inactive) | > 100 µM (inactive) | 80.7 µM (inactive) | 91.8 µM (inactive) | 78.5 | > 100 µM (inactive) | > 100 µM (inactive) | > 100 µM (inactive) | 80.7 µM (inactive) | > 100 µM (inactive) | > 100 µM (inactive) | – | – | –
CCc1ccccc1NC(=O)/C=C/c1ccccc1 | > 100 µM (inactive) | – | > 100 µM (inactive) | – | > 100 µM (inactive) | > 100 µM (inactive) | > 100 µM (inactive) | 85.9 µM (inactive) | > 100 µM (inactive) | > 100 µM (inactive) | > 100 | 49 µM (inactive) | > 100 µM (inactive) | > 100 µM (inactive) | > 100 µM (inactive) | > 100 µM (inactive) | > 100 µM (inactive) | – | > 100 µM (inactive) | > 100 µM (inactive)
CC(C)C(C(=O)N(C)[C@H](C(=O)N1CCC[C@H]1C(=O)N(C)[C@@H](Cc1ccccc1)C(=O)OCc1ccccc1)C(C)C)N(C)C(=O)[C@@H](NC(=O)OC(C)(C)C)C(C)C (some centres undefined) (Boc-V[ξNMeV][NMeV]P[NMeF]-OBn) | > 31.6 µM (inactive) | 30.4 µM (inactive) | > 31.6 µM (inactive) | 4.58 µM (inactive) | > 31.6 µM (inactive) | > 100 µM (inactive) | 4.42 µM (inactive) | > 31.6 µM (inactive) | > 57.4 µM (inactive) | > 31.6 µM (inactive) | 8.65 | > 31.6 µM (inactive) | > 31.6 µM (inactive) | > 31.6 µM (inactive) | 10.8 µM (inactive) | 15.8 µM (inactive) | > 10 µM (inactive) | – | – | –
